Laboratory results as given in US10918645B2 (LIFEARC, priority 2016, dated 2021).

Tests used:
Type in all cases: biochemical
Details in all cases: 1 μM inhibitor concentration
HIPK2 = HIPK2 (Homo sapiens (Human), UniProt Q9H2X6); experiment: HIPK2 kinase selectivity assay
Protocol: 5-20 mU of HIPK2 (diluted in 50 mM Tris (pH 7.5), […] EGTA, 1 mg/ml BSA, 0.1%, b-Mercaptoethanol) is assayed against MBP in a final volume of 25.5 μl containing 50 mM Tris (pH 7.5), 0.1 mM EGTA, 0.1%, b-Mercaptoethanol, 0.33 mg/ml MBP, 10 mM magnesium acetate and 0.005 mM [33P-g-ATP](500-1000 cpm/pmole) and incubated for 30 mins at room temperature. Assays are stopped by addition of 5 μl of 0.5M (3%) orthophosphoric acid. Assays are harvested onto P81 Unifilter plates using a wash buffer of 50 mM orthophosphoric acid.

ROCK2 = ROCK2 (Homo sapiens (Human), UniProt O75116); experiment: ROCK2 kinase selectivity assay
Protocol: ROCK-II (ROKa) (5-20 mU diluted in 50 mM Tris pH 7.5, 0.1 mM EGTA, 0.1% b-mercaptoethanol, 1 mg/ml BSA) is assayed against Long S6 substrate peptide ([…]) in a final volume of 25.5 μl containing 50 mM Tris pH 7.5, 0.1 mM EGTA, 30 μM Long S6 substrate peptide, 10 mM magnesium acetate and 0.02 mM [33P-g-ATP] (50-1000 cpm/pmole) and incubated for 30 min at room temperature. Assays are stopped by addition of 5 μl of 0.5 M (3%) orthophosphoric acid and then harvested onto P81 Unifilter plates with a wash buffer of 50 mM orthophosphoric acid.

EF2K = EF2K (Homo sapiens (Human), UniProt O00418); experiment: EF2K kinase selectivity assay
Protocol: EF2K (5-20 mU diluted in 50 mM Hepes pH 6.6, 0.1% b-mercaptoethanol, 1 mg/ml BSA) is assayed against a substrate peptide ([…]) in a final volume of 25.5 μl containing 50 mM Hepes pH 6.6, 0.2 mM CaCl2, 0.3 μM Calmodulin, 0.05% b-mercaptoethanol, 300 μM substrate peptide, 10 mM magnesium acetate and 0.005 mM [33P-g-ATP] (50-1000 cpm/pmole) and incubated for 30 min at room temperature. Assays are stopped by addition of 5 μl of 0.5 M (3%) orthophosphoric acid and then harvested onto P81 Unifilter plates with a wash buffer of 50 mM orthophosphoric acid.

EPH-A2 = EPH-A2 (Homo sapiens (Human), UniProt P29317); experiment: EPH-A2 kinase selectivity assay
Protocol: (§1) EPH-A2 (5-20 mU diluted in 50 mM Tris pH 7.5, 0.1 mM EGTA, 1 mg/ml BSA) is assayed against a substrate peptide (Poly Glut Tyr) in a final volume of 25.5 μl containing 50 mM Tris pH 7.5, 0.1 mg/ml substrate peptide, 10 mM magnesium acetate and 0.05 mM [33P-g-ATP] (50-1000 cpm/pmole) and incubated for 30 min at room temperature. Assays are stopped by addition of 5 μl of 0.5 M (3%) orthophosphoric acid and then harvested onto P81 Unifilter plates with a wash buffer of 50 mM orthophosphoric acid.

IRAK4 = IRAK4 (Homo sapiens (Human), UniProt Q9NWZ3); experiment: IRAK4 kinase selectivity assay
Protocol: IRAK4 (5-20 mU diluted in 50 mM Tris pH 7.5, 0.1 mM EGTA, 0.1% 0-mercaptoethanol, 1 mg/ml BSA) is assayed against MBP in a final volume of 25.5 μl containing 50 mM Tris pH 7.5, 0.1 mM EGTA, 0.33 mg/ml MBP, 10 mM magnesium acetate and 0.02 mM [33P-γ-ATP] (50-1000 cpm/pmole) and incubated for 30 min at room temperature. Assays are stopped by addition of 5 μl of 0.5 M (3%) orthophosphoric acid and then harvested onto P81 Unifilter plates with a wash buffer of 50 mM orthophosphoric acid.

ULK1 = ULK1 (Homo sapiens (Human), UniProt O75385); experiment: ULK1 kinase selectivity assay
SGK1 = SGK1 (Homo sapiens (Human), UniProt O00141); experiment: SGK1 kinase selectivity assay
Protocol: SGK (5-20 mU diluted in 20 mM MOPS pH 7.5, 1 mM EDTA, 0.01% Brij35, 5% glycerol, 0.1% b-mercaptoethanol, 1 mg/ml BSA) is assayed against a modified Crosstide peptide […] in a final volume of 25.5 μl containing 8 mM MOPS pH 7.0, 0.2 mM EDTA, 30 μM substrate peptide, 10 mM magnesium acetate and 0.02 mM [33P-g-ATP] (50-1000 cpm/pmole) and incubated for 30 min at room temperature. Assays are stopped by addition of 5 μl of 0.5 M (3%) orthophosphoric acid and then harvested onto P81 Unifilter plates with a wash buffer of 50 mM orthophosphoric acid.

BTK = BTK (Homo sapiens (Human), UniProt Q06187); experiment: BTK kinase selectivity assay
Protocol: as §1, with “BTK” for “EPH-A2”, “([…])” for “(Poly Glut Tyr)”, “300 µM” for “0.1 mg/ml”

CK2 = CK2 kinase selectivity assay
Protocol: CK2 (5-20 mU diluted in 20 mM Hepes pH7.5, 0.15 M NaCl, 0.1 mM EGTA, 0.1% Triton X-100, 5 mM DTT, 50% glycerol) is assayed against CKII peptide ([…]) in a final volume of 25.5 μl containing 20 mM Hepes pH 7.5, 0.15 M NaCl, 0.1 mM EDTA, 5 mM DTT, 0.1% Triton-X 100, CKII peptide (0.165 mM), 10 mM magnesium acetate and 0.005 mM [33P-g-ATP](500-1000 cpm/pmole) and incubated for 30 min at room temperature. Assays are stopped by addition of 5 μl of 0.5 M (3%) orthophosphoric acid and then harvested onto P81 Unifilter plates with a wash buffer of 50 mM orthophosphoric acid.

Sequence of SGK1 (O00141 whole entry, species assumed): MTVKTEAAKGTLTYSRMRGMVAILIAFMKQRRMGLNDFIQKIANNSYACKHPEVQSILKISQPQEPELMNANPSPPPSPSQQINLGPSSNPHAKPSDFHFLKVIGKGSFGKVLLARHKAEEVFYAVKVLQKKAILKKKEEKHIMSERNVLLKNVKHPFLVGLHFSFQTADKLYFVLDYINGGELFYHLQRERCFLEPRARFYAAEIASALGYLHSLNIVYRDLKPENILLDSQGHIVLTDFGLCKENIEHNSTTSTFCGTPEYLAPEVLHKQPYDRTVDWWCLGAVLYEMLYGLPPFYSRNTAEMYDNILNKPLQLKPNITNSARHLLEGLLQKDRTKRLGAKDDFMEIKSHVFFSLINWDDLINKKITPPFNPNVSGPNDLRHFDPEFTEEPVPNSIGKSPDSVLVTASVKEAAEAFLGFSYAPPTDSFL
Sequence of ULK1 (O75385 whole entry, species assumed): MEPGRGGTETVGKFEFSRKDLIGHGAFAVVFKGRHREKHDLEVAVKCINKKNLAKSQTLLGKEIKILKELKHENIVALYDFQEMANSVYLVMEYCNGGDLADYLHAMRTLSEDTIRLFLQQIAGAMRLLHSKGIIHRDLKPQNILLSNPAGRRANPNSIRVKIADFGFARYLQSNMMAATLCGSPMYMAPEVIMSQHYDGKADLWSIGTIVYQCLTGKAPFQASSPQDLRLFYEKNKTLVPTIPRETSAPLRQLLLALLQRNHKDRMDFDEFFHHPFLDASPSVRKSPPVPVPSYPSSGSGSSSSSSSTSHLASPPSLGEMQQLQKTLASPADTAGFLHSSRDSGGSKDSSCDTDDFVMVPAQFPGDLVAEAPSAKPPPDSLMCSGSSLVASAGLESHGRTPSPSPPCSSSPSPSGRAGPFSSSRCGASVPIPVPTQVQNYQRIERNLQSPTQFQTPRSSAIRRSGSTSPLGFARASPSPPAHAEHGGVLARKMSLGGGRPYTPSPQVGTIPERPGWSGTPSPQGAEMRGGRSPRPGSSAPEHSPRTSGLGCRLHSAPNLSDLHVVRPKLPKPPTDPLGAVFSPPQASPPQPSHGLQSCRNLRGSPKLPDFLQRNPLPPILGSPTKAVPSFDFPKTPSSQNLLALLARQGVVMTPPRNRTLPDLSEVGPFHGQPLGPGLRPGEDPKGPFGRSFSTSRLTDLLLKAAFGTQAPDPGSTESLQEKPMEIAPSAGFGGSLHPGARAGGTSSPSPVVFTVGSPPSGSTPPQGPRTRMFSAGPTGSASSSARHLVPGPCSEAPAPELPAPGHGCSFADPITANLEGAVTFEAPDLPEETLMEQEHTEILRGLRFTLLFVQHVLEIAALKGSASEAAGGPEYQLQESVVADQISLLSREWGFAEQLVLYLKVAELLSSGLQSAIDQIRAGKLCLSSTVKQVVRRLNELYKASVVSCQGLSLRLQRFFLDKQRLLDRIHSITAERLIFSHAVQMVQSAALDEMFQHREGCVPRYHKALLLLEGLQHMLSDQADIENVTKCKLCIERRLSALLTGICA
Sequence of IRAK4 (Q9NWZ3 whole entry, species assumed): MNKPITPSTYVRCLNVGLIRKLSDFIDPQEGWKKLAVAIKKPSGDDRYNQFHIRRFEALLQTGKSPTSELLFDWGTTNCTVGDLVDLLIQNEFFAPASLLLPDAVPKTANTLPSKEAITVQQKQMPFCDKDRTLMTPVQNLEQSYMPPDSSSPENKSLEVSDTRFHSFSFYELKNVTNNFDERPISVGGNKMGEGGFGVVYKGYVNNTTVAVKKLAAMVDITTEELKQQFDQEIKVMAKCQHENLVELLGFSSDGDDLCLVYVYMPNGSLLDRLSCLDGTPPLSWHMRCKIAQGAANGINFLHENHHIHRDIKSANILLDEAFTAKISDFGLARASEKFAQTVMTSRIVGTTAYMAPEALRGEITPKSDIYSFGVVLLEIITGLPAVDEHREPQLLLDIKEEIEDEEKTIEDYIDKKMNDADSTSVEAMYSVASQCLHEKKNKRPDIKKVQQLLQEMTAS
Sequence of ROCK2 (O75116 whole entry, species assumed): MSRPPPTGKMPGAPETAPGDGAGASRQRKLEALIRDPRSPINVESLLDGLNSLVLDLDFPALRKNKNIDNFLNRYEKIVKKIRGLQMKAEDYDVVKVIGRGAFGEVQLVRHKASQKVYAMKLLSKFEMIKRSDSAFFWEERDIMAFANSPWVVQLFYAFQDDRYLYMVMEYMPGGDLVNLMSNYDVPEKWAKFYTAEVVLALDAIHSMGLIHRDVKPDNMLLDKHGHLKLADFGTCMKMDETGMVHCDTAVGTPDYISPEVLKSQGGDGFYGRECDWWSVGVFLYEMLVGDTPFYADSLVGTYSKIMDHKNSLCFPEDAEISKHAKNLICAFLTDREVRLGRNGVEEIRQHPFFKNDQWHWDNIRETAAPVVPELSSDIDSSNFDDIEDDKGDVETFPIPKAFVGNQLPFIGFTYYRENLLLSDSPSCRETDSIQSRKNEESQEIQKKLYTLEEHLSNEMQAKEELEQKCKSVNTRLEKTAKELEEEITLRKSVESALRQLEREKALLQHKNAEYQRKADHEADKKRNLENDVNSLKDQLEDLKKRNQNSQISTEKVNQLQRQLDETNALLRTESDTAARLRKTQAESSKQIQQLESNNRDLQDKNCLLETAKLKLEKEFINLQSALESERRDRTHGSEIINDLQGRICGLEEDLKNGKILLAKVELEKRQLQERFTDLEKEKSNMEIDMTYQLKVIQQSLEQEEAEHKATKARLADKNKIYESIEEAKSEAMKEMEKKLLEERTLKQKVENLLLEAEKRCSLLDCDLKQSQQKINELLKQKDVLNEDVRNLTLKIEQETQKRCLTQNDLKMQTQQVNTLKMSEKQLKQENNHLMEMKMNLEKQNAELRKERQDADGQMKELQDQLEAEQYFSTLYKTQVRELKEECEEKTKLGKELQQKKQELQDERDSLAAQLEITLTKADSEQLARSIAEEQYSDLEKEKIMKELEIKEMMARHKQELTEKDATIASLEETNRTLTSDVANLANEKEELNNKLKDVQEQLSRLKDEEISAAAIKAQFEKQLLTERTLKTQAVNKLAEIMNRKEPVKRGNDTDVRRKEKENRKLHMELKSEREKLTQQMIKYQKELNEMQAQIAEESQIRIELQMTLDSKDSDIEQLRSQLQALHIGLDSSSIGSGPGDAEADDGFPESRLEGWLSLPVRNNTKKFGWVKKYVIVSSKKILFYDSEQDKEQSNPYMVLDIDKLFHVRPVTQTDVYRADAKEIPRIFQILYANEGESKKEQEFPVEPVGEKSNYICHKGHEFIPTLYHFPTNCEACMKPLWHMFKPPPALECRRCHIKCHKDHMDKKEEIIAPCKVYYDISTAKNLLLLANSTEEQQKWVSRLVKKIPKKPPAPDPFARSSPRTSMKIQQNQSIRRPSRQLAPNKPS
Sequence of BTK (Q06187 whole entry, species assumed): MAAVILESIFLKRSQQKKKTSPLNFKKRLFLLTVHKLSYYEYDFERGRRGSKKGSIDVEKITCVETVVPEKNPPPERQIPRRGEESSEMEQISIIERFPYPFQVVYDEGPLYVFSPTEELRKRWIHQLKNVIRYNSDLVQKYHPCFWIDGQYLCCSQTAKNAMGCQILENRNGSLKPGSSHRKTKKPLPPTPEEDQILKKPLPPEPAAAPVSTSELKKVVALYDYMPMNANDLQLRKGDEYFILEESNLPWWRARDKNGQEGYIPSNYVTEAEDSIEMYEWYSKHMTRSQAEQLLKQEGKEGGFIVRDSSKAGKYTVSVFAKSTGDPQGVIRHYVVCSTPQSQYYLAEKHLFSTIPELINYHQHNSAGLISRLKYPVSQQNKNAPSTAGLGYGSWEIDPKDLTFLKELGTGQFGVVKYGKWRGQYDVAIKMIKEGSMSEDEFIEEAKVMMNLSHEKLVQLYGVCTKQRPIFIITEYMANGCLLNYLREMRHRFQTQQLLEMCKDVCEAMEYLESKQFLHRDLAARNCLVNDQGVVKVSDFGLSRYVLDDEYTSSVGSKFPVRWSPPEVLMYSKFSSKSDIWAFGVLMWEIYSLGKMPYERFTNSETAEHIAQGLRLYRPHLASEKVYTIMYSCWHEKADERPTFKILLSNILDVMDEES
Sequence of EPH-A2 (P29317 24-976, species assumed): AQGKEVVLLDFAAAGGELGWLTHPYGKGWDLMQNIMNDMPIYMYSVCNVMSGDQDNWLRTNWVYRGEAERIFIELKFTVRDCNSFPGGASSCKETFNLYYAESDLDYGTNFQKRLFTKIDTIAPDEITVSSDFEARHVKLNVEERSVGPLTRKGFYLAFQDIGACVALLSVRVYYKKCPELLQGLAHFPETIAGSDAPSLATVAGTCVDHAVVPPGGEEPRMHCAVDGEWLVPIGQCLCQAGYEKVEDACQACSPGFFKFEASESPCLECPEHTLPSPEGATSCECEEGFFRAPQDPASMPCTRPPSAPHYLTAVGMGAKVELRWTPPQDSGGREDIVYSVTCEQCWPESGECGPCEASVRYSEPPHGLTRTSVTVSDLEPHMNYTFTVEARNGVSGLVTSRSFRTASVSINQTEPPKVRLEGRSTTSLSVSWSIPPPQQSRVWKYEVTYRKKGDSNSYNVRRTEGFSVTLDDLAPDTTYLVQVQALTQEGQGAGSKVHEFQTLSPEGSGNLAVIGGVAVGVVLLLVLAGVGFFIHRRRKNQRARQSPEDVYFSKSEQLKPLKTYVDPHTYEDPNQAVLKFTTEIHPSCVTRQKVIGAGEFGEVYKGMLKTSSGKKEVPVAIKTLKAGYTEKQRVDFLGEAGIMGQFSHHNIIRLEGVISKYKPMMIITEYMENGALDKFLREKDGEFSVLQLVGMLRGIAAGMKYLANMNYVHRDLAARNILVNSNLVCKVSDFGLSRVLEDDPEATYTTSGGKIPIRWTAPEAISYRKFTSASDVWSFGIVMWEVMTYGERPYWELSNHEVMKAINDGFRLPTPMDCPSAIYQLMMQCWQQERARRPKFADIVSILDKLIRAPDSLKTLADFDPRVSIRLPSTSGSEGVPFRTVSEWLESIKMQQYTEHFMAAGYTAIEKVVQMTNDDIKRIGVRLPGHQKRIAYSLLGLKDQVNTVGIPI

SMILES | percentage inhibition of HIPK2 (HIPK2) | percentage inhibition of ROCK2 (ROCK2) | percentage inhibition of EF2K (EF2K) | percentage inhibition of EPH-A2 (EPH-A2) | percentage inhibition of IRAK4 (IRAK4) | percentage inhibition of ULK1 (ULK1) | percentage inhibition of SGK1 (SGK1) | percentage inhibition of BTK (BTK) | percentage inhibition of CK2 (CK2)
c1cc2[nH]nc3c2c(n1)N(C1CCC1)CCC3 [Example 22, 6-cyclobutyl-6,7,8,9-tetrahydro-2H-1,2,5,6-tetraazabenzo[cd]azulene] | 11 percentage | 5 percentage | 0 percentage | 0 percentage | 13 percentage | 14 percentage | 13 percentage | 0 percentage | 0 percentage
c1cc2[nH]nc3c2c(n1)N(C1CCCC1)CCC3 [Example 23, 6-cyclopentyl-6,7,8,9-tetrahydro-2H-1,2,5,6-tetraazabenzo[cd]azulene] | 3 percentage | 0 percentage | 0 percentage | 0 percentage | 0 percentage | 0 percentage | 0 percentage | 0 percentage | 
c1cc2[nH]nc3c2c(n1)N(C1CCOCC1)CCC3 [Example 29, 6-(tetrahydro-2H-pyran-4-yl)-6,7,8,9-tetrahydro-2H-1,2,5,6-tetraazabenzo[cd]azulene] | 3 percentage | 11 percentage | 0 percentage | 0 percentage | 15 percentage | 5 percentage | 18 percentage | 0 percentage | 0 percentage
CN1CCC(N2Cc3ccccc3-c3n[nH]c4ccnc2c34)CC1 [Example 55] | 1 percentage | 14 percentage | 1 percentage | 0 percentage | 9 percentage | 20 percentage | 10 percentage | 0 percentage | 11 percentage
CC(C)n1ncc2c1CN(C1CCN(C)CC1)c1nccc3[nH]nc-2c13 [Example 68] | 0 percentage | 21 percentage | 1 percentage | 0 percentage | 14 percentage | 30 percentage | 23 percentage | 0 percentage | 4 percentage
